Take `O=C(O)c1ccc(OCCCn2ccnc2)cc1`: the melting point – broadly, the temperature of the solid-liquid transition – is 218 °C.

As for `CN1C(=O)C(C(=O)Nc2ccc(F)cc2)S(=O)(=O)c2ccccc21` (stereo not drawn), the melting point was 189 to 192 °C.

With `COc1ccc(C2(C#N)CCC(=O)CC2)c2c1oc1ccccc12`, the melting point fell in the range of 199 to 202 °C.

Compound `CCOC(=O)[C@H](Cc1ccc(-c2c(OC)cc(CO)cc2OC)cc1)NC(=O)OC(C)(C)C` showed a melting point of 142 to 143 °C.

Take `N#CN=C(NCCO)NCc1ccc(-c2csc(N=C(N)N)n2)o1`: the melting point fell in the range of 208 to 209 °C.

Take `COC(=O)c1cc(CCCCc2c(N)nc(N)nc2O)cs1`: the melting point lay in the range of 185 to 186 °C.

In turn, `Cc1nc(-n2cnn(CCCC(F)(F)F)c2=O)sc1C(=O)NCc1cccnc1` gave a melting point of 184 to 185 °C.

Compound `CN(C)C(N)=Nc1ccccc1N1CCOCC1` gave a melting point of 143 to 144 °C.

Take `CC1(C)Oc2ccc(C#N)cc2[C@@H](NC(=O)NC(=O)C(Cl)(Cl)Cl)[C@@H]1O` (relative stereo): the melting point fell in the range of 231 to 233 °C.

In turn, `CCCOc1ccc2oc(-c3ccc4c(c3)C=C(C(=O)Nc3ccc(CN(C)C5CCOCC5)cc3)CCS4(=O)=O)cc2c1` came in with a melting point of 241 to 242 °C.

For `O=C(O)C(=O)N1CCC(Cc2ccc(Cl)cc2)CC1`, the melting point was 147 to 148 °C.

Consider `NC(=O)C(c1ccc(Cl)cc1)c1ccc(-n2ncc(=O)[nH]c2=O)cc1Cl` (stereo not drawn), for which the melting point was 161 °C.

For `CC(=O)OC(c1nc2c(C(F)(F)F)cccc2c(O)c1C(=O)Nc1nccs1)C(C)C` (stereo not drawn), the melting point stood at 242 °C.

For the compound `CCOC(=O)c1c(C)nc(NN)c2nnn(CC)c12`, the melting point fell in the range of 75 to 78 °C.

The compound `O=C(NCCO)/C(=C/c1ccc(OC(F)(F)F)cc1)NC(=O)c1ccc(OCCC2CC2)cc1` yielded a melting point of 142 to 144 °C.

`O=C1NCC(CN2C(=O)C3(COc4cc5c(cc43)CCO5)c3ccccc32)O1` (stereo not drawn) came in with a melting point of 197 to 198 °C.

Turning to `NC(=O)NN=Cc1ccc(Oc2ccc(F)cc2)c(F)c1`, the melting point lay in the range of 233 to 234 °C.

Compound `CCCCCCCCC(SCCCCCC)C(=O)Nc1c(SC)cc(SC)c2ncccc12` (stereo not drawn) registered a melting point of 91 to 93 °C.

In turn, `COc1cc(OC)c2c(=O)[nH]c(-c3cc(C)c(OCC(C)(C)O)c(C)c3)cc2c1` showed a melting point of 252 to 254 °C.

Take `Nc1nc2c(ncn2CCC(COCc2ccccc2)COCc2ccccc2)c(=O)[nH]1`: the melting point is 210 to 224 °C.

In turn, `Cc1cc(F)ccc1-c1nc(OCCNC(=O)OC(C)(C)C)nc2c1ccc(=O)n2-c1c(F)cccc1F` came in with a melting point of 103 to 105 °C.

`COc1cc(Br)nc(C(=O)O)c1OCc1ccccc1` returned a melting point of 134 to 135 °C.

`Nc1cc(N2CCCCC2)c(F)cc1[N+](=O)[O-]` came in with a melting point of 112 to 113 °C.

In turn, `CCCCCc1c(C(C)C)nc(C(C)C)c(CN(C)C)c1-c1ccc(F)cc1` gave a melting point of 69 to 71 °C.

Compound `COc1ccc(S(=O)(=O)N2CCc3cccc(-c4ccc(O)cc4)c32)cc1` showed a melting point of 179 to 180 °C.

For the compound `CS(=O)(=O)Nc1cc(OCCC(=O)O)ccc1Oc1ccccc1`, the melting point lay in the range of 145 to 149 °C.

The compound `Cc1cc(C#N)cn2cc(-c3cccc(-c4ccc(C#N)cc4)c3)nc12` had a melting point of 236 to 238 °C.

The compound `COC(=O)CCCc1cc2cc(Cl)ccc2n1S(=O)(=O)c1ccc(OC)cc1` came in with a melting point of 97 to 98 °C.

Consider `Cc1ccc(C(=O)Nc2c[nH]nc2C(=O)NCCO)cn1`, for which the melting point is 233 to 235 °C.

Turning to `COc1ccc(OCC(=O)CS(=O)(=O)C(c2ccc(Cl)cc2)c2ccc(Cl)cc2)cc1`, the melting point was in the range of 116 to 117 °C.

`O=C(CCC1CCCCC1)NC1N=C(c2ccccc2)c2ccccc2N2CCN=C12` (stereo not drawn) registered a melting point of 202 to 208 °C.

As for `CCN(CC)CCCC(=O)c1ccc2c(c1)Cc1cc(C(=O)CCCN(CC)CC)ccc1-2`, the melting point lay in the range of 79 to 81 °C.

As to `CCOc1cnc(C(C)(C)OC(=O)Nc2ccc(-c3ncn(-c4ccc(OC(F)(F)F)cc4)n3)cc2)nc1`, the melting point is 168 to 171 °C.

`CCS(=O)(=O)c1cc2c(cc1OC)CCn1c3c(c(Br)c1-2)CCCCN(C(C)(C)C)C3=O` had a melting point of 227 °C.

Consider `Cn1cc(-c2cccc(C#N)c2)c(=O)c(-c2cccc(C#N)c2)c1`, for which the melting point lay within 322 to 327 °C.

The compound `CCCc1c2nc(C(=O)OC)cc(C(F)(F)C(F)(F)C(F)(F)F)c2cc2c(=O)cc(C(=O)OCC)oc12` had a melting point of 144 to 146 °C.

Consider `O=C(Nc1ccc(Cl)cc1)/C(Br)=C/Br`, for which the melting point is 99.5 to 100 °C.

In turn, `COC(=O)C(C(=O)O)=C1SC=CS1` displayed a melting point of 48 to 51 °C.

`COCCN(c1cccc2cc(C(=O)NCCSC(c3ccccc3)(c3ccccc3)c3ccccc3)[nH]c12)S(=O)(=O)c1cccs1` showed a melting point of 65 to 66 °C.

`CNc1ccc(-c2[nH]cnc2-c2cc(OC)cc(OC)c2)cc1F` showed a melting point of 182 to 184 °C.

Regarding `CCOC(=S)c1c(C)nc2sccn12`, the melting point fell in the range of 133 to 135 °C.

Consider `CN1C(=O)C2(COc3cc4c(cc32)OCCO4)c2c(C(=O)N3CCCC3)cccc21` (stereo not drawn), for which the melting point was 242 to 244 °C.

With `CC(C)(C)c1cc(I)c2c(c1)CNC1(O2)C2CC3CC(C2)CC1C3` (stereo not drawn), the melting point lay in the range of 162 to 164 °C.

In turn, `O=Cc1cc2ccccc2[nH]1` came in with a melting point of 134 to 137 °C.

`C[C@H]1N(C(=O)c2ccc(C(F)(F)F)cc2)CC(O)O[C@@]1(Cn1cncn1)c1ccc(Cl)cc1Cl` (relative stereo): the melting point lay in the range of 199 to 200 °C.

Regarding `CNC(Cc1ccccc1NC(=O)C(C)(C)C)c1cccnc1` (stereo not drawn), the melting point is 91.5 to 96 °C.

`COC(=O)Nc1cn2nc(OCc3cc(OC)c(OC)c(OC)c3Br)ccc2n1` returned a melting point of 218 to 219 °C.

`CNc1c(F)cc2c(=O)c(C(=O)O)cn(-c3ccc(F)c(OC)c3)c2c1Cl`: the melting point lay within 250 to 253 °C.

Turning to `NS(=O)(=O)N1CC2(CCN(C(=O)Nc3nnc(-c4ccccc4)s3)CC2)c2ccccc21`, the melting point is over 300 °C.

`O=S1(=O)CCN2C=CC=C(c3ccc(OC4CCCC4)cc3)C2=N1` showed a melting point of 254 to 256 °C.

The compound `CC1CC2C3CCC4=CC(=O)CCC4=C3C=CC2(C)C1O` (stereo not drawn) gave a melting point of 149 to 151 °C.

`NC(=O)c1ccc(F)c(Br)c1` displayed a melting point of 131 to 133 °C.

With `Nc1ccc(SCc2csc(N)n2)cc1`, the melting point lay in the range of 130 to 132 °C.

The compound `O=C(Nc1cc2c(cn1)[nH]c1ccccc12)c1cccs1` registered a melting point of 109 to 125 °C.

Turning to `N#Cc1ccc(COc2cccc(F)c2)cc1`, the melting point was in the range of 69 to 70 °C.

In turn, `Cc1ccc(-c2cn(C)cc(-c3ccc(C)cc3)c2=O)cc1` yielded a melting point of 212 to 214 °C.

With `CCOCc1nc2c(N)nc3cc(CCCO)ccc3c2n1CC(C)(C)O`, the melting point lay in the range of 177 to 178 °C.

In turn, `CNc1ncccc1[N+](=O)[O-]` returned a melting point of 52 to 53 °C.

In the case of `CCCc1c(CSc2nccc(OCC(=O)OCC)n2)ccc(C(C)=O)c1O`, the melting point was 112 to 117 °C.

As to `NS(=O)(=O)c1ccc(-n2nc(C(F)(F)F)cc2-c2ccc(F)cc2)cc1F`, the melting point is 127 to 130 °C.

Compound `COc1cc(OC)cc(N2CCN(C(=S)Nc3cc4c(nc3OC)CCCC4)CC2)c1` displayed a melting point of 160 to 161 °C.

Regarding `O=C1c2ccccc2-c2c1cccc2-c1nc2ccncc2[nH]1`, the melting point lay within 236 to 238 °C.

`CCOC(=O)C1=C(C)NC(c2nccn2Cc2ccccc2)=NC1c1ccc(F)cc1Cl` (stereo not drawn) registered a melting point of 114 to 117 °C.

As to `Cc1cc(C)cc(OCC(C)O)c1` (stereo not drawn), the melting point was 48.7 to 49.5 °C.

`CCCCCCCCON1C(C)(C)CC(NC(=O)CCc2cc(-n3nc4ccccc4n3)c(O)c(C(C)(C)C)c2)CC1(C)C` came in with a melting point of 153 to 159 °C.

With `COc1ccc(-n2cc(C(=O)O)c(=O)c3cc(F)c(F)cc32)cc1`, the melting point fell in the range of 256 to 258 °C.

On to `COc1cccc(OCCCNC(=O)OC(C)(C)C)c1-c1cc(Nc2cnc(C#N)cn2)n[nH]1`, for which the melting point lay in the range of 214 to 216 °C.

`COc1ccc(C2CCN(C(=O)C(N)=O)CC2)cc1OC1CCCC1` came in with a melting point of 66 to 66.5 °C.

In turn, `CCOC(=O)C(=CC=C(O)C(=O)O)Sc1ccc2ccccc2c1` came in with a melting point of 182 °C.

`O=c1[nH]c2ncc(-c3ccc(O)cc3)nc2n1CC1CCCCC1` displayed a melting point of 302 to 303 °C.

Compound `CC1Cc2cc(NC(=O)OCc3ccccc3)ccc2N1C(=O)OCc1ccccc1` (stereo not drawn) gave a melting point of 107 to 111 °C.

`COC(=O)C(C)(C)Nc1ncc(I)cc1[N+](=O)[O-]` yielded a melting point of 121 to 122 °C.

Take `CC(C)NCCc1ccc(O)cc1`: the melting point was in the range of 102 to 104 °C.

In turn, `c1ccc(CN(c2ccccc2)c2cccc3ccccc23)cc1` showed a melting point of 120 to 123 °C.

As to `COc1nc(C)cc(C)c1C(=O)O`, the melting point is 210 to 215 °C.

`CCCc1c(CNc2ccc(C(=O)O)cc2)ccc(C(C)=O)c1O` yielded a melting point of 202 to 204 °C.

`OC1(c2ccncc2)c2ccccc2CCc2ccccc21` yielded a melting point of 174 to 177 °C.

On to `O=C(O)C(O)N1C(=O)CCN1c1cccc(Cl)c1` (stereo not drawn), for which the melting point lay in the range of 134 to 136 °C.

Turning to `O=c1ccn([C@@H]2C[C@H](O)[C@@H](O)[C@H]2O)c(=O)[nH]1` (racemic), the melting point was 229 to 230 °C.

`O=S1(=O)NC(C2=CCCCC2)Nc2cc(Cl)ccc21` (stereo not drawn) registered a melting point of 252 to 254 °C.

The compound `OCc1ccc(O)c(CO)c1CNCCCCCCOCCc1ccco1` came in with a melting point of 91 to 93 °C.

Consider `NC1=NC(c2cccc(-c3cccnc3F)c2)(c2ccc3c(c2)OCO3)C2=NCCCN12` (stereo not drawn), for which the melting point is 106 to 119 °C.

`Cc1cccc(C(O)c2cncn2C(c2ccccc2)(c2ccccc2)c2ccccc2)c1C` (stereo not drawn) yielded a melting point of 203 to 207 °C.

As to `CCONC(=O)n1nc(Oc2c(Cl)cc(C(F)(F)F)cc2Cl)cc1C`, the melting point was 105 to 107 °C.

Compound `O=S(=O)(OCC1OC2CC(CC(OS(=O)(=O)c3ccc(Br)cc3)C2)O1)c1ccc(Br)cc1` (stereo not drawn) yielded a melting point of 128 °C.

`CCn1nc2c(N)nc3c(c2c1CC1(O)CCCCC1)CCCC3` returned a melting point of 232 to 234 °C.

`Cc1ccccc1-c1cc(Cl)cc2c1OC(CN)C2` (stereo not drawn) came in with a melting point of 160 to 163 °C.

`CCOC(=O)c1cc(=O)n(Cc2ccc(S(=O)(=O)O)cc2S(=O)(=O)O)[nH]1` returned a melting point of over 300 °C.

The record behind these values is a melting point compilation (Tetko et al.; mined from patent text by program, amines drawn as free bases though some values may be those of a salt).
